Measured values: publication PMC6131691 (Chirality, 2012)
Read-outs that look alike come from different tables or passages of the source. Marks after values point to notes of the source that are not given here.

Tests used:
[1] = test system: SULT isoforms; assay: cDNA-expressed SULT isoform screen, comparison of stereoisomers across isoforms; format: in vitro ADME, human; settings: in each of the SULT isoforms
[2] = test system: human-derived 1321N1 astrocytoma cells; settings: read-out: IC50, inhibition of mitogenesis; cited from earlier work
[3] = test system: 1321N1 tumors; settings: tumors implanted in the flank of SKID mice; cited from earlier work
[4] = test system: SULT1A3; assay: cDNA-expressed SULT isoform screen, SULT1A3; settings: relative to SULT1A1*1, SULT1A1*2, SULT1E1
[5] = test system: human intestinal S9 fractions (mixture of SULT enzymes); assay: Kinetics of sulfation of MF stereoisomers by human intestinal S9 fractions; settings: read-out: Km (Michaelis constant) of sulfation; human intestinal S9 1 mg/ml, 200 µM PAPS, pH 7.4, 60 min; mean ± SE
[6] = humans; cited from earlier work
[7] = test system: human intestinal S9 fractions (mixture of SULT enzymes); settings: pH 7.4
[8] = test system: human intestinal S9 fractions (mixture of SULT enzymes); settings: for Reduction of (R,R)-MF conjugation at equimolar concentrations: equimolar with 50 µM [3H]-(R,R)-MF
[9] = test system: SULT1A1*1
[10] = test system: SULT1A1*2
[11] = test system: SULT1A3
[12] = test system: β2-AR; settings: relative to (R,R)-MF; ref unpublished data; cited from earlier work
[13] = test system: SULT1E1

For COc1ccc(C[C@@H](C)NC[C@H](O)c2cc(O)cc(O)c2)cc1 [(R,R)-MF, (R,R)-4-methoxyfenoterol], the “Sulfation rate compared with (S,S)-MF, (R,S)-MF and (S,R)-MF” value [1] is given as “significantly (P < 0.0001) lower”, the IC50 [2] is given as 0.17 nM and the “Growth of 1321N1 tumors” value [3] is given as “retards the growth”. The “SULT1A3-mediated conjugation, greater than the sulfation by the other isoforms” value [4] was 1.5- to 2 fold and the Km [5] was 62 ± 1.27 µM.
For CC(Cc1ccc(O)cc1)NCC(O)c1cc(O)cc(O)c1 [(R,R;S,S)-Fen, fenoterol], the Oral bioavailability [6] is given as ~ 2%.
For COc1ccc(CC(C)NCC(O)c2cc(O)cc(O)c2)cc1 [(R,S)-MF, 4-methoxyfenoterol], the Km [7] was 68.5 ± 3.2 µM, the IC50 [8] was greater than 400 µM and the “Reduction of (R,R)-MF conjugation at equimolar concentrations” value (“Reduction of (R,R)-MF conjugation” for short) ([8]; human intestinal S9) was “little effect”. The “SULT1A1*1-catalyzed sulfation, greater than SULT1A3 and SULT1E1” value [9] was 1.5 fold and the “SULT1A1*2-catalyzed sulfation, greater than SULT1A3 and SULT1E1” value [10] was 1.5 fold.
For COc1ccc(CC(C)NCC(O)c2cc(O)cc(O)c2)cc1 [(S,R)-MF, 4-methoxyfenoterol], the Km [7] was 52 µM, the “Reduction in the production of (R,R)-MF sulfate” value ([8]; 2:1 ratio of (S,R)-MF/(R,R)-MF, human intestinal S9) was 61% and the “Reduction of (R,R)-MF conjugation” value ([8]; human intestinal S9) was ~ 40%. For the same compound, the “SULT1A3-mediated conjugation, greater than the sulfation by the other isoforms” value [11] was 1.5- to 2 fold and the “β2-AR agonist activity as share of that of (R,R)-MF” value [12] was “less than 5%”.
With COc1ccc(CC(C)NCC(O)c2cc(O)cc(O)c2)cc1 [(S,S)-MF, 4-methoxyfenoterol] the Km [7] was 89 µM, the “Km (Michaelis constant) of sulfation” value [7] was 89.21 ^a ± 2.59 µM and the IC50 [8] was greater than 200 µM. The “Reduction of (R,R)-MF conjugation” value ([8]; human intestinal S9) was “little effect” and the “Activity of SULT1E1, lower than SULT1A1*1, SULT1A1*2 and SULT1A3” value [13] was 1.3 fold.
